Laboratory results: the supplement of paper PMC10307832

Key:
Assay in all cases: relative viability (nuclei count vs DMSO), 5 days (fraction); higher = more cells survive
[1] = test system: ABC-1
Summary of the method: (§1)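 After 5 days of treatment, lung cancer cells in 1536-well plates were fixed and stained in a single step (final 0.05% Triton X-100, 1% formaldehyde, 1 ug/ml Hoechst) and their nuclei counted on 4× images. Treatment had been applied by pin tool the day after seeding as one drug alone or as a fixed anchor-drug dose with five library-drug doses (not always all listed) in √10 steps. Relative viability is the nuclei count of treated wells divided by that of vehicle wells, and values are medians of duplicate plates.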

[2] = test system: CAL-12T
Summary of the method: as §1

[3] = test system: ChaGo-K-1
Summary of the method: as §1

[4] = test system: EMC-BAC-2
Summary of the method: as §1

[5] = test system: EPLC-272H
Summary of the method: as §1

[6] = test system: HCC-15
Summary of the method: as §1

[7] = test system: HCC-78
Summary of the method: as §1

[8] = test system: HOP-62
Summary of the method: as §1

[9] = test system: LXF-289
Summary of the method: as §1

[10] = test system: NCI-H1666
Summary of the method: as §1

[11] = test system: NCI-H1755
Summary of the method: as §1

[12] = test system: NCI-H1915
Summary of the method: as §1

[13] = test system: NCI-H1975
Summary of the method: as §1

[14] = test system: NCI-H2085
Summary of the method: as §1

[15] = test system: NCI-H2126
Summary of the method: as §1

[16] = test system: NCI-H3122
Summary of the method: as §1

[17] = test system: NCI-H322M
Summary of the method: as §1

[18] = test system: NCI-H358
Summary of the method: as §1

[19] = test system: NCI-H441
Summary of the method: as §1

Cc1sc2c(c1C)C(c1ccc(Cl)cc1)=N[C@@H](CC(=O)OC(C)(C)C)c1nnc(C)n1-2 [JQ1] + NC(=O)Nc1cc(-c2cccc(F)c2)sc1C(=O)N[C@H]1CCCNC1 [AZD7762] (partner 0.2 µM)
relative viability ([1]; first compound 0.04 µM): 0.854
relative viability ([1]; first compound 0.1265 µM): 0.803
relative viability ([1]; first compound 0.4 µM): 0.95
relative viability ([1]; first compound 1.265 µM): 0.596
relative viability ([1]; first compound 4 µM): 0.529
relative viability ([2]; first compound 0.04 µM): 0.588
relative viability ([2]; first compound 0.1265 µM): 0.52
relative viability ([2]; first compound 0.4 µM): 0.466
relative viability ([2]; first compound 1.265 µM): 0.365
relative viability ([2]; first compound 4 µM): 0.317
relative viability ([3]; first compound 0.04 µM): 0.875
relative viability ([3]; first compound 0.1265 µM): 0.89
relative viability ([3]; first compound 0.4 µM): 0.899
relative viability ([3]; first compound 1.265 µM): 0.821
relative viability ([3]; first compound 4 µM): 0.536
relative viability ([4]; first compound 0.04 µM): 1.08
relative viability ([4]; first compound 0.1265 µM): 0.869
relative viability ([4]; first compound 0.4 µM): 0.975
relative viability ([4]; first compound 1.265 µM): 0.725
relative viability ([4]; first compound 4 µM): 0.627
relative viability ([5]; first compound 0.04 µM): 0.244
relative viability ([5]; first compound 0.1265 µM): 0.122
relative viability ([5]; first compound 0.4 µM): 0.355
relative viability ([5]; first compound 1.265 µM): 0.246
relative viability ([5]; first compound 4 µM): 0.214
relative viability ([6]; first compound 0.04 µM): 1.32
relative viability ([6]; first compound 0.1265 µM): 0.924
relative viability ([6]; first compound 0.4 µM): 0.978
relative viability ([6]; first compound 1.265 µM): 0.512
relative viability ([6]; first compound 4 µM): 0.742
relative viability ([7]; first compound 0.04 µM): 0.762
relative viability ([7]; first compound 0.1265 µM): 0.574
relative viability ([7]; first compound 0.4 µM): 0.559
relative viability ([7]; first compound 1.265 µM): 0.421
relative viability ([7]; first compound 4 µM): 0.208
relative viability ([8]; first compound 0.04 µM): 0.535
relative viability ([8]; first compound 0.1265 µM): 0.608
relative viability ([8]; first compound 0.4 µM): 0.37
relative viability ([8]; first compound 1.265 µM): 0.103
relative viability ([8]; first compound 4 µM): 0.107
relative viability ([9]; first compound 0.04 µM): 1.12
relative viability ([9]; first compound 0.1265 µM): 1.07
relative viability ([9]; first compound 0.4 µM): 0.851
relative viability ([9]; first compound 1.265 µM): 1.02
relative viability ([9]; first compound 4 µM): 0.512
relative viability ([10]; first compound 0.04 µM): 0.869
relative viability ([10]; first compound 0.1265 µM): 0.793
relative viability ([10]; first compound 0.4 µM): 0.65
relative viability ([10]; first compound 1.265 µM): 0.48
relative viability ([10]; first compound 4 µM): 0.488
relative viability ([11]; first compound 0.04 µM): 0.533
relative viability ([11]; first compound 0.1265 µM): 0.387
relative viability ([11]; first compound 0.4 µM): 0.565
relative viability ([11]; first compound 1.265 µM): 0.507
relative viability ([11]; first compound 4 µM): 0.433
relative viability ([12]; first compound 0.04 µM): 0.729
relative viability ([12]; first compound 0.4 µM): 0.653
relative viability ([12]; first compound 1.265 µM): 0.437
relative viability ([12]; first compound 4 µM): 0.241
relative viability ([13]; first compound 0.04 µM): 0.678
relative viability ([13]; first compound 0.1265 µM): 0.412
relative viability ([13]; first compound 0.4 µM): 0.767
relative viability ([13]; first compound 1.265 µM): 0.526
relative viability ([13]; first compound 4 µM): 0.41
relative viability ([14]; first compound 0.04 µM): 0.935
relative viability ([14]; first compound 0.1265 µM): 0.822
relative viability ([14]; first compound 0.4 µM): 1.06
relative viability ([14]; first compound 1.265 µM): 0.446
relative viability ([14]; first compound 4 µM): 0.318
relative viability ([15]; first compound 0.04 µM): 1.08
relative viability ([15]; first compound 0.1265 µM): 1.01
relative viability ([15]; first compound 0.4 µM): 1.04
relative viability ([15]; first compound 1.265 µM): 0.956
relative viability ([15]; first compound 4 µM): 0.838
relative viability ([16]; first compound 0.04 µM): 1.04
relative viability ([16]; first compound 0.1265 µM): 0.965
relative viability ([16]; first compound 0.4 µM): 0.971
relative viability ([16]; first compound 1.265 µM): 0.883
relative viability ([16]; first compound 4 µM): 0.693
relative viability ([17]; first compound 0.04 µM): 0.532
relative viability ([17]; first compound 0.1265 µM): 0.534
relative viability ([17]; first compound 0.4 µM): 0.44
relative viability ([17]; first compound 1.265 µM): 0.397
relative viability ([17]; first compound 4 µM): 0.437
relative viability ([18]; first compound 0.04 µM): 0.524
relative viability ([18]; first compound 0.1265 µM): 0.565
relative viability ([18]; first compound 0.4 µM): 0.538
relative viability ([18]; first compound 1.265 µM): 0.344
relative viability ([18]; first compound 4 µM): 0.232
relative viability ([19]; first compound 0.04 µM): 1.07
relative viability ([19]; first compound 0.1265 µM): 1.16
relative viability ([19]; first compound 0.4 µM): 1.04
relative viability ([19]; first compound 1.265 µM): 0.369
relative viability ([19]; first compound 4 µM): 0.249
